Data: PubChem BioAssay AID248 (DTP/NCI, 2004)
Toxic doses and inconclusive results are not listed. Cut-off read from the data, not from the text of the source: active = T/C of 150% or more; inactive = T/C below 125%.

Tested on: L1210 leukemia ip in BDF1 mice, survival T/C
Assay: NCI In Vivo Anticancer Drug Screen. Data for tumor model L1210 Leukemia (intraperitoneal) in B6D2F1 (BDF1) mice
Settings: endpoint: mean survival time, higher = longer survival
Summary of the method: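 Ratio derived from survival: compound-dosed mice over vehicle-dosed mice, all bearing a transplantable tumor.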

[1] = dose: 6.25 mg/kg/injection, schedule: Q01DX009 (ip), vehicle: saline
[2] = dose: 12.5 mg/kg/injection, schedule: Q01DX009 (ip), vehicle: saline
[3] = dose: 12.5 mg/kg/injection, schedule: Q04DX003 (ip), vehicle: saline
[4] = dose: 25.0 mg/kg/injection, schedule: Q04DX003 (ip), vehicle: saline
[5] = dose: 50.0 mg/kg/injection, schedule: Q01DX001 (ip), vehicle: saline
[6] = dose: 200.0 mg/kg/injection, schedule: Q01DX001 (ip), vehicle: saline
[7] = dose: 400.0 mg/kg/injection, schedule: Q01DX001 (ip), vehicle: saline
[8] = dose: 50.0 mg/kg/injection, schedule: Q04DX003 (ip), vehicle: saline with Tween-80
[9] = dose: 100.0 mg/kg/injection, schedule: Q01DX009 (ip), vehicle: Klucel (hydroxypropylcellulose) (HPC)
[10] = dose: 200.0 mg/kg/injection, schedule: Q01DX009 (ip), vehicle: Klucel (hydroxypropylcellulose) (HPC)
[11] = dose: 400.0 mg/kg/injection, schedule: Q01DX009 (ip), vehicle: Klucel (hydroxypropylcellulose) (HPC)

Measured: T/C

CC(CN(C)C)CN1c2ccccc2Sc2ccc(C(F)(F)F)cc21 (stereo not given)
inactive: dose: 0.78 mg/kg/injection, schedule: Q04DX003 (ip), vehicle: saline 108 % of control | dose: 1.56 mg/kg/injection, schedule: Q01DX009 (ip), vehicle: saline 111 % of control | dose: 1.56 mg/kg/injection, schedule: Q04DX003 (ip), vehicle: saline 96 % of control | dose: 3.12 mg/kg/injection, schedule: Q01DX009 (ip), vehicle: saline 104 % of control | dose: 3.12 mg/kg/injection, schedule: Q04DX003 (ip), vehicle: saline 105 % of control | [1] 105 % of control | dose: 6.25 mg/kg/injection, schedule: Q04DX003 (ip), vehicle: saline 97 % of control | [2] 109 % of control | [3] 105 % of control | [4] 109 % of control

CCOC(=O)n1cnc2nc(N)nc(Cl)c21
inactive: [5] 103 % of control | dose: 100.0 mg/kg/injection, schedule: Q01DX001 (ip), vehicle: saline 105 % of control | [6] 100 % of control | [7] 122 % of control

CCC1CC(C#N)C(=O)NC1=O (stereo not given)
inactive: [1] 93 % of control | dose: 12.5 mg/kg/injection, schedule: Q01DX001 (ip), vehicle: saline 108 % of control | [2] 91 % of control | [3] 100 % of control | dose: 25.0 mg/kg/injection, schedule: Q01DX001 (ip), vehicle: saline 100 % of control | dose: 25.0 mg/kg/injection, schedule: Q01DX009 (ip), vehicle: saline 93 % of control | [4] 92 % of control | [5] 110 % of control

NC(=S)N/N=C/c1cc(Br)cc(Br)c1O
inactive: dose: 100.0 mg/kg/injection, schedule: Q04DX002 (ip), vehicle: Klucel (hydroxypropylcellulose) (HPC) 95 % of control | dose: 200.0 mg/kg/injection, schedule: Q04DX002 (ip), vehicle: Klucel (hydroxypropylcellulose) (HPC) 91 % of control | dose: 400.0 mg/kg/injection, schedule: Q04DX002 (ip), vehicle: Klucel (hydroxypropylcellulose) (HPC) 100 % of control

COc1cccc2c1C(=O)c1c(O)c3c(c(O)c1C2=O)CC(O)(C(C)=O)CC3O (stereo not given)
inactive: dose: 0.16 mg/kg/injection, schedule: Q01DX009 (ip), vehicle: saline with Tween-80 103 % of control | dose: 0.16 mg/kg/injection, schedule: Q03HX008 (ip), vehicle: saline with Tween-80 100 % of control | dose: 0.32 mg/kg/injection, schedule: Q01DX009 (ip), vehicle: saline with Tween-80 90 % of control | dose: 0.32 mg/kg/injection, schedule: Q03HX008 (ip), vehicle: saline with Tween-80 97 % of control | dose: 0.63 mg/kg/injection, schedule: Q01DX009 (ip), vehicle: saline with Tween-80 99 % of control | dose: 0.63 mg/kg/injection, schedule: Q03HX008 (ip), vehicle: saline with Tween-80 100 % of control | dose: 1.25 mg/kg/injection, schedule: Q01DX009 (ip), vehicle: saline with Tween-80 94 % of control | dose: 1.25 mg/kg/injection, schedule: Q03HX008 (ip), vehicle: saline with Tween-80 95 % of control | dose: 2.5 mg/kg/injection, schedule: Q01DX009 (ip), vehicle: saline with Tween-80 91 % of control | dose: 2.5 mg/kg/injection, schedule: Q03HX008 (ip), vehicle: saline with Tween-80 95 % of control | dose: 5.0 mg/kg/injection, schedule: Q01DX001 (ip), vehicle: saline 102 % of control | dose: 5.0 mg/kg/injection, schedule: Q01DX009 (ip), vehicle: saline with Tween-80 101 % of control | dose: 5.0 mg/kg/injection, schedule: Q03HX008 (ip), vehicle: saline with Tween-80 97 % of control | dose: 10.0 mg/kg/injection, schedule: Q01DX001 (ip), vehicle: saline 94 % of control | dose: 10.0 mg/kg/injection, schedule: Q01DX009 (ip), vehicle: saline with Tween-80 100 % of control | dose: 10.0 mg/kg/injection, schedule: Q03HX008 (ip), vehicle: saline with Tween-80 90 % of control | dose: 20.0 mg/kg/injection, schedule: Q01DX001 (ip), vehicle: saline with Tween-80 100 % of control | dose: 20.0 mg/kg/injection, schedule: Q01DX001 (ip), vehicle: saline 105 % of control | dose: 20.0 mg/kg/injection, schedule: Q04DX003 (ip), vehicle: saline with Tween-80 96 % of control | dose: 40.0 mg/kg/injection, schedule: Q01DX001 (ip), vehicle: saline with Tween-80 100 % of control | dose: 40.0 mg/kg/injection, schedule: Q01DX001 (ip), vehicle: saline 105 % of control | dose: 40.0 mg/kg/injection, schedule: Q04DX003 (ip), vehicle: saline with Tween-80 103 % of control | dose: 80.0 mg/kg/injection, schedule: Q01DX001 (ip), vehicle: saline with Tween-80 102 % of control | dose: 80.0 mg/kg/injection, schedule: Q04DX003 (ip), vehicle: saline with Tween-80 102 % of control | dose: 160.0 mg/kg/injection, schedule: Q01DX001 (ip), vehicle: saline with Tween-80 105 % of control | dose: 160.0 mg/kg/injection, schedule: Q04DX003 (ip), vehicle: saline with Tween-80 103 % of control

CC(C)CN(C)N=Nc1ccccc1C(=O)NN
inactive: dose: 50.0 mg/kg/injection, schedule: Q01DX009 (ip), vehicle: saline with Tween-80 100 % of control | [8] 98 % of control | dose: 100.0 mg/kg/injection, schedule: Q01DX009 (ip), vehicle: saline with Tween-80 98 % of control | dose: 100.0 mg/kg/injection, schedule: Q04DX003 (ip), vehicle: saline with Tween-80 98 % of control | dose: 200.0 mg/kg/injection, schedule: Q01DX009 (ip), vehicle: saline with Tween-80 121 % of control | dose: 200.0 mg/kg/injection, schedule: Q04DX003 (ip), vehicle: saline with Tween-80 103 % of control

C/C=C\c1ccc(OCCOC(C)=O)c(OC)c1
inactive: dose: 100.0 mg/kg/injection, schedule: Q04DX002 (ip), vehicle: saline with Tween-80 97 % of control | dose: 200.0 mg/kg/injection, schedule: Q04DX002 (ip), vehicle: saline with Tween-80 97 % of control | dose: 400.0 mg/kg/injection, schedule: Q04DX002 (ip), vehicle: saline with Tween-80 93 % of control

ClCCN(CCCl)CCCN1c2ccccc2Sc2ccc(Cl)cc21
inactive: dose: 1.56 mg/kg/injection, schedule: Q01DX009 (ip), vehicle: saline with Tween-80 100 % of control | dose: 3.12 mg/kg/injection, schedule: Q01DX001 (ip), vehicle: saline with Tween-80 105 % of control | dose: 3.12 mg/kg/injection, schedule: Q01DX009 (ip), vehicle: saline with Tween-80 112 % of control | dose: 6.25 mg/kg/injection, schedule: Q01DX001 (ip), vehicle: saline with Tween-80 103 % of control | dose: 6.25 mg/kg/injection, schedule: Q01DX009 (ip), vehicle: saline with Tween-80 110 % of control | dose: 6.25 mg/kg/injection, schedule: Q04DX003 (ip), vehicle: saline with Tween-80 102 % of control | dose: 12.5 mg/kg/injection, schedule: Q01DX001 (ip), vehicle: saline with Tween-80 108 % of control | dose: 12.5 mg/kg/injection, schedule: Q01DX009 (ip), vehicle: saline with Tween-80 112 % of control | dose: 12.5 mg/kg/injection, schedule: Q04DX003 (ip), vehicle: saline with Tween-80 107 % of control | dose: 25.0 mg/kg/injection, schedule: Q04DX003 (ip), vehicle: saline with Tween-80 110 % of control | [8] 122 % of control

NC(Cc1cc(O)c(O)c(S(=O)(=O)c2ccccc2)c1)C(=O)O (stereo not given)
inactive: dose: 87.5 mg/kg/injection, schedule: Q01DX009 (ip), vehicle: saline 98 % of control | dose: 175.0 mg/kg/injection, schedule: Q01DX009 (ip), vehicle: saline 96 % of control | dose: 350.0 mg/kg/injection, schedule: Q01DX009 (ip), vehicle: saline 107 % of control

CC(=O)CC(=O)Nc1ccc(Cl)cc1Cl
inactive: [9] 100 % of control | dose: 100.0 mg/kg/injection, schedule: Q04DX003 (ip), vehicle: Klucel (hydroxypropylcellulose) (HPC) 98 % of control | [10] 102 % of control | dose: 200.0 mg/kg/injection, schedule: Q04DX003 (ip), vehicle: Klucel (hydroxypropylcellulose) (HPC) 91 % of control | [11] 98 % of control | dose: 400.0 mg/kg/injection, schedule: Q04DX003 (ip), vehicle: Klucel (hydroxypropylcellulose) (HPC) 93 % of control

Cc1ccc(NC(=O)N(O)C2CCCCC2C#N)cc1 (stereo not given)
inactive: [6] 96 % of control | [7] 91 % of control

O=C(Nc1ccc(F)c([N+](=O)[O-])c1)N1CCN(c2ccccc2)CC1
inactive: [9] 101 % of control | [10] 98 % of control | [11] 107 % of control
